Results as given in PubChem BioAssay (NCI).
Where “and” joins values, the source holds several entries; their conditions need not be identical. Identical values can stand only once.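 Five concentrations, 48 hours, 96-well plates. GI50 marks 50% less growth. TGI marks complete inhibition of growth.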 Where a SMILES comes first, the peptide text is derived from it. The star is where a group is joined. Cbz = O=C(OCc1ccccc1)*; OBn = c1ccc(CO*)cc1

Assays:
Assay in all cases: NCI-60 cell line screen, 48 h
M14 melanoma = test system: M14 melanoma
CCRF-CEM leukemia = test system: CCRF-CEM leukemia
RPMI-8226 leukemia = test system: RPMI-8226 leukemia
SNB-75 CNS = test system: SNB-75 CNS
KM12 colon = test system: KM12 colon
SNB-19 CNS = test system: SNB-19 CNS
HL-60(TB) leukemia = test system: HL-60(TB) leukemia
SW-620 colon = test system: SW-620 colon
OVCAR-8 ovarian = test system: OVCAR-8 ovarian

Row | SMILES | TGI (M14 melanoma) | TGI (CCRF-CEM leukemia) [µM] | TGI (RPMI-8226 leukemia) [µM] | TGI (SNB-75 CNS) [µM] | TGI (KM12 colon) [µM] | TGI (SNB-19 CNS) [µM] | TGI (HL-60(TB) leukemia) [µM] | TGI (SW-620 colon) [µM] | TGI (OVCAR-8 ovarian) [µM] | GI50 (CCRF-CEM leukemia) [µM] | GI50 (RPMI-8226 leukemia) [µM] | GI50 (SNB-75 CNS) [µM] | GI50 (KM12 colon) [µM] | GI50 (SNB-19 CNS) [µM] | GI50 (HL-60(TB) leukemia) [µM] | GI50 (SW-620 colon) [µM] | GI50 (OVCAR-8 ovarian) [µM] | GI50 (M14 melanoma) [µM]
1 | CCOC(=O)c1nc2ccc(C(F)(F)F)cc2nc1NCc1ccc(Cl)c(Cl)c1 | > 100 µM | > 100 | > 100 | 51.3 | > 100 | 83.2 | > 100 | > 100 | > 100 | – | – | – | – | – | – | – | – | –
2 | COc1cc(Br)c(OC)c2c(OC)cc(C)cc12 | > 100 µM | > 100 | > 100 | > 100 | > 100 | > 100 | > 100 | > 100 | > 100 | – | – | – | – | – | – | – | – | –
3 | CC1(C)C(=O)N(O)C(C)(C)N1O | > 10 µM | > 10 | > 10 | > 10 | > 10 | > 10 | > 10 | > 10 | > 10 | – | – | – | – | – | – | – | – | –
4 | CC1=NC(=O)C(C)(c2ccccc2)N1CCc1ccccc1 (configuration not stated) | > 100 µM | > 100 | > 100 | > 100 | > 100 | > 100 | > 100 | > 100 | > 100 | – | – | – | – | – | – | – | – | –
5 | Cc1nn2c(=O)c([N+](=O)[O-])c(/C=C/c3ccccc3)nc2s1 | > 53.9 µM | 7.65 | 6.84 | 20.3 | 11 | > 90.8 | 5.61 | > 51.4 | 5.26 | – | – | – | – | – | – | – | – | –
6 | CCOC(=O)/C(O)=C(/C=N\C(=S)Nc1ccccc1Cl)C(=O)OCC | > 100 µM | > 100 | > 100 | > 100 | > 100 | > 100 | > 100 | > 100 | > 100 | – | – | – | – | – | – | – | – | –
7 | COc1ccc(/C=C2/C(C)=NN(c3cccc(Cl)c3)/C2=N/c2nc3ccccc3s2)cc1 | 60.8 µM | 92.7 | 66.6 | 86.6 | > 100 | – | 51.4 | 52 | 49.3 | – | – | – | – | – | – | – | – | –
8 | Cc1occc1C(=S)Nc1ccc(Cl)c(C(=O)OCC(F)(F)F)c1 | > 100 µM | 57.7 | 51.5 | 49.4 | 44.4 | 43.9 | 65.6 | 56.3 | 36.2 | – | – | – | – | – | – | – | – | –
9 | O=C(O)C1CC2C3CCC2C1C3=O (configuration not stated) | > 100 µM | > 100 | – | > 100 | > 100 | > 100 | > 100 | > 100 | > 100 | – | – | – | – | – | – | – | – | –
10 | N#CC(C#N)=CN1CCN(C(=O)c2ccco2)C1=S | – | > 100 | > 100 | > 100 | 32.2 | 82 | 58.1 | > 100 | > 100 | 79.7 | 4.53 | 40.6 | 4.12 | 38.7 | 19.8 | 5.62 | 14.6 | –
11 | CN(C)c1ccc(-c2c(C#N)c(N)[nH]c(=S)c2C#N)cc1 | > 100 µM | > 100 | – | > 100 | – | > 100 | > 100 | > 100 | > 100 | – | – | – | – | – | – | – | – | –
12 | C[C@H]1[C@H](C)N(Cc2ccccc2)P(=O)(C(O)/C=C/c2ccccc2)N1Cc1ccccc1 (some centres not stated) | 9.05 µM | – | 15.6 | 17.9 | > 25 | > 25 | – | > 25 | > 25 | – | – | – | – | – | – | – | – | –
13 | CCOC(=O)c1cc(Sc2ccc(N)c(C(=O)OCC)c2)ccc1N | > 100 µM | > 100 | > 100 | > 100 | > 100 | > 100 | > 100 | > 100 | > 100 | – | – | – | – | – | – | – | – | –
14 | COC(=O)CNC(=O)C(C)NC(=O)C(CC(=O)OCc1ccccc1)NC(=O)OCc1ccccc1 (stereo not drawn) (Cbz-Asp(OBn)-Ala-Gly-OMe; configuration not given here) | > 100 µM | – | > 100 | > 100 | > 100 | > 100 | – | > 100 | > 100 | – | – | – | – | – | – | – | – | –
15 | COc1ccc2c(c1)CC[C@@H]1[C@@H]2CC[C@]2(C)C(=O)C3(CCCCC3)C[C@@H]12 | > 100 µM | > 100 | > 100 | > 100 | > 100 | > 100 | > 100 | > 100 | > 100 | > 100 | > 100 | > 100 | > 100 | > 100 | > 100 | > 100 | > 100 | > 100
16 | NC1CC(=O)c2cc(Cl)sc21 (configuration not stated) | > 100 µM | > 100 | – | > 100 | > 100 | > 100 | > 100 | > 100 | > 100 | – | – | – | – | – | – | – | – | –
17 | O=C(O)c1c[nH]c2c(Sc3ccccc3)nccc2c1=O | > 100 µM | > 100 | – | > 100 | > 100 | > 100 | > 100 | > 100 | > 100 | – | – | – | – | – | – | – | – | –
18 | COc1cc2cc(C(=O)N3CC(CCl)c4c3cc(NC(=O)C(C)(C)c3ccccc3[N+](=O)[O-])c3ccccc43)[nH]c2c(OC)c1OC (configuration not stated) | 9.11 µM and 33.2 µM | – | > 600 | – | – | – | – | – | – | 51.2 | – | 61.7 | 48.2 | 303 | 37.1 | 16.9 | 6.58 | 6.24
19 | O=c1[nH]c(=O)n(C2OC(CO)C(O)C(F)C2O)cc1F (configuration not stated) | > 100 µM | > 100 | > 100 | – | – | > 100 | > 100 | > 100 | > 100 | – | – | – | – | – | – | – | – | –
20 | Cc1c2cnccc2c(C)c2c1[nH]c1ccc(O)cc12 | > 10 µM | > 10 | > 10 | 8.09 | 2.34 | > 10 | 2.98 | 7.03 | 3.41 | – | – | – | – | – | – | – | – | –
21 | N#CC1(C#N)C2CCCCC23OC(=N)C1(C#N)C(c1ccco1)O3 (configuration not stated) | 41.6 µM | > 100 | – | > 100 | > 100 | > 100 | – | 52.3 | 73.6 | – | – | – | – | – | – | – | – | –
